Laboratory results as given in US7465743B2, “Pyrazolo[3,4-b]pyridine compounds, and their use as PDE4 inhibitors” (Glaxo Group Limited, priority 2004, dated 2008).

Tests used:
[1] = test system: conscious ferret (emesis); assay: In Vivo Assay 4: emetic episodes in the conscious ferret after oral PDE4 inhibitor; therapeutic index; design: species or system ferret (Mustela Pulorius Furo); conditions: p.o.
Procedure: (§1) In Vivo Assay 4. Evaluation of Therapeutic Index of Orally-administered PDE 4 inhibitors in the conscious ferret
(§2) PDE4 inhibitors are prepared for oral (p.o.) administration by dissolving in a fixed volume (1 ml) of acetone and then adding cremophor to 20% of the final volume. Acetone is evaporated by directing a flow of nitrogen gas onto the solution. Once the acetone is removed, the solution is made up to final volume with distilled water. LPS is dissolved in phosphate buffered saline.
Male ferrets (Mustela Pulorius Furo, weighing 1-2 kg) are transported and allowed to acclimatise for not less than 7 days. […]
(§3) PDE4 inhibitors are administered orally (p.o.), using a dose volume of 1 ml/kg. […] The animals are constantly observed and any emetic episodes (retching and vomiting) or behavioural changes are recorded. […]
(§4) Thirty minutes after oral dosing with compound or vehicle control, the ferrets are placed into sealed perspex containers and exposed to an aerosol of LPS (30 μg/ml) for 10 minutes. […] All emetic episodes and behavioural changes are recorded.
b) Emetic episodes—the number of vomits and retches are counted to determine the dose of PDE4 inhibitor that gives a 20% incidence of emesis (D20).
c) A therapeutic index (TI), using this assay, is then calculated for each PDE4 inhibitor using the following equation: […]

[2] = test system: LPS-induced pulmonary neutrophilia; assay: In Vivo Assay 4: LPS-induced pulmonary neutrophilia in the conscious ferret; design: species or system ferret (Mustela Pulorius Furo); conditions: p.o.
Procedure: as §1, §2
Male ferrets (Mustela Pulorius Furo, weighing 1-2 kg) are transported and allowed to acclimatise for not less than 7 days. The diet comprises SDS diet C pelleted food given ad lib with Whiskers™ cat food given 3 times per week. […]
as §3, §4
Six hours after LPS exposure the animals are killed by overdose of sodium pentobarbitone administered intraperitoneally. […] From this, the total number of neutrophils in the BAL sample is determined. […]

[3] = target: T1, PDE4B (human recombinant) (Homo sapiens, UniProt Q07343); assay: Inhibition of PDE4B activity (radioactive SPA assay or IMAP FP assay); type: biochemical; conditions: specific Examples; for Selectivity (PDE4B/PDE5 EMR ratio, not log scale): ratio PDE4B vs PDE5, not log scale; for IC50: one reading or average of ca. 2-6 readings, read-out: PDE4B pIC50 (± about 0.5) (converted)
T1 construct: made in house
T1 sequence (Q07343 1-564 isoform Q07343-2): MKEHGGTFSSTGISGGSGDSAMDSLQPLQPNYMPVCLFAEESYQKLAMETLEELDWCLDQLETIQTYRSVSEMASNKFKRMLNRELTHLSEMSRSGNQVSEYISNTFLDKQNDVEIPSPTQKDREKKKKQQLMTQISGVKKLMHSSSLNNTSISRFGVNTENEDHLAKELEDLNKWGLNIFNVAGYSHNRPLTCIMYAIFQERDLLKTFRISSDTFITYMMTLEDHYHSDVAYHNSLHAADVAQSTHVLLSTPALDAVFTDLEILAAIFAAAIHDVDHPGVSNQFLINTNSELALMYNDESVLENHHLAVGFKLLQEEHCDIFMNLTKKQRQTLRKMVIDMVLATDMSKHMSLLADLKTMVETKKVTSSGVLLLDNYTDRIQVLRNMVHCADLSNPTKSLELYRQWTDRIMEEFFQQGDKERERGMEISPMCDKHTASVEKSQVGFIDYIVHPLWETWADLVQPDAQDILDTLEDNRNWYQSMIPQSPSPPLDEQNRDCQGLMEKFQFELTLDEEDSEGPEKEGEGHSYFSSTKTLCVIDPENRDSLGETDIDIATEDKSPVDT
Description: Human recombinant PDE4B, in particular the 2B splice variant thereof (HSPDE4B2B), is disclosed in WO 94/20079 and also M. M. McLaughlin et al., “A low Km, rolipram-sensitive, cAMP-specific phosphodiesterase from human brain: cloning and expression of cDNA, biochemical characterisation of recombinant protein, and tissue distribution of mRNA”, J. Biol. Chem., 1993, 268, 6470-6476. For example, in Example 1 of WO 94/20079, human recombinant PDE4B is described as being expressed in the PDE-deficient yeast Saccharomyces cerevisiae strain GL62, e.g. after induction by addition of 150 uM CuSO4, and 100,000×g supernatant fractions of yeast cell lysates are described for use in the harvesting of PDE4B enzyme.
(§5) Inhibition of PDE 3, PDE 4B, PDE 4D, PDE 5 or PDE 6 Activity: Radioactive Scintillation Proximity Assay (SPA)
(§6) The ability of compounds to inhibit catalytic activity at PDE4B or 4D (human recombinant), PDE3 (from bovine aorta), PDE5 (human recombinant) or PDE6 (from bovine retina) is determined by Scintillation Proximity Assay (SPA) in 96-well format. Test compounds (as a solution in DMSO, preferably about 2 microliter (ul) volume of DMSO solution) are preincubated at ambient temperature (room temperature, e.g. 19-23° C.) in Wallac Isoplates (code 1450-514) with PDE enzyme in 50 mM Tris-HCl buffer pH 7.5, 8.3 mM MgCl2, 1.7 mM EGTA, 0.05% (w/v) bovine serum albumin for 10-30 minutes (usually 30 minutes). The enzyme concentration is adjusted so that no more than 20% hydrolysis of the substrate defined below occurs in control wells without compound, during the incubation. For the PDE3, PDE4B and PDE4D assays, [5′,8-^3H]Adenosine 3′,5′-cyclic phosphate (Amersham Pharmacia Biotech, code TRK.559; or Amersham Biosciences UK Ltd, Pollards Wood, Chalfont St Giles, Buckinghamshire HP8 4SP, UK) is added to give 0.05 uCi per well and ˜10 nM final concentration. For the PDE5 and PDE6 assays, [8-^3H]Guanosine 3′,5′-cyclic phosphate (Amersham Pharmacia Biotech, code TRK.392) is added to give 0.05 uCi per well and ˜36 nM final concentration. Plates containing assay mixture, preferably approx. 100 ul volume of assay mixture, are mixed on an orbital shaker for 5 minutes and incubated at ambient temperature for 1 hour. Phosphodiesterase SPA beads (Amersham Pharmacia Biotech, code RPNQ 0150) are added (˜1 mg per well) to terminate the assay. Plates are sealed and shaken and allowed to stand at ambient temperature for 35 minutes to 1 hour (preferably 35 minutes) to allow the beads to settle. Bound radioactive product is measured using a WALLAC TRILUX 1450 Microbeta scintillation counter. For inhibition curves, 10 concentrations (1.5 nM-30 uM) of each compound are assayed. Curves are analysed using ActivityBase and XLfit (ID Business Solutions Limited, 2 Ocean Court, Surrey Research Park, Guildford, Surrey GU2 7QB, United Kingdom) Results are expressed as pIC50 values.
Inhibition of PDE4B or PDE4D Activity: Fluorescence Polarisation (FP) Assay
The ability of compounds to inhibit catalytic activity at PDE4B (human recombinant) or PDE4D (human recombinant) is determined by IMAP Fluorescence Polarisation (FP) assay (IMAP Explorer kit, available from Molecular Devices Corporation, Sunnydale, Calif., USA; Molecular Devices code: R8062) in 384-well format. The IMAP FP assay is able to measure PDE activity in an homogenous, non-radioactive assay format. The FP assay uses the ability of immobilised trivalent metal cations, coated onto nanoparticles (tiny beads), to bind the phosphate group of Fl-AMP that is produced on the hydrolysis of fluorescein-labelled (Fl) cyclic adenosine mono-phosphate (Fl-cAMP) to the non-cyclic Fl-AMP form. […] Binding of Fl-AMP product to the beads (coated with the immobilised trivalent cations) slows the rotation of the bound Fl-AMP and leads to an increase in the fluorescence polarisation ratio of parallel to perpendicular light. Inhibition of the PDE reduces/inhibits this signal increase. […]

PDE5 (human recombinant) = PDE5 (human recombinant) (Homo sapiens, UniProt O76074); assay: Inhibition of PDE5 activity (radioactive SPA assay); type: biochemical; conditions: specific Examples; one reading or average of ca. 2-6 readings; read-out: PDE5 pIC50 (± about 0.5) (converted)
Description: Human recombinant PDE5 is disclosed in K. Loughney et al., “Isolation and characterisation of cDNAs encoding PDE5A, a human cGMP-binding, cGMP-specific 3′,5′-cyclic nucleotide phosphodiesterase”, Gene, 1998, 216, 139-147.
as §5, §6
Biological Data obtained for some of the Examples (PDE4B and/or PDE5 inhibitory activity, either as one reading or as an average of ca. 2-6 readings) are as follows, based on current measurements only. In each of the SPA and FP assays, absolute accuracy of measurement is not possible, and the readings given are accurate only up to about ±0.5 of a log unit, depending on the number of readings made and averaged: […]

Selectivity (PDE4B/PDE5 EMR ratio, not log scale) [3] | IC50 [3] [nM] | IC50 (PDE5 (human recombinant)) [µM] | SMILES | D20 for emesis (dose that gives a 20% incidence of emesis) [1] | D50 for ferret neutrophilia (dose which gives 50% inhibition of LPS-induced pulmonary neutrophilia) [2]
 |  |  | O=C(Nc1c(Cl)cncc1Cl)c1ccc(OC(F)F)c(OCC2CC2)c1 [roflumilast] | about 0.46 mg/kg | about 0.42 mg/kg
240 | 15.8 | 3.98 | CCn1ncc2c(NC(C)(C)C)c(C(=O)NCc3ccccc3)cnc21 [Example 53, 4-(tert-Butylamino)-1-ethyl-N-benzyl-1H-pyrazolo[3,4-b]pyridine-5-carboxamide] |  | 
2 | 158 | 0.398 | CCCCNC(=O)c1cnc2c(cnn2CC)c1NCCCC [4-butylamino-1-ethyl-pyrazolo[3,4-b]pyridine-5-(N-butyl)carboxamide, reference compound] |  | 
≧309 | 100 | > 30.2 | CCn1ncc2c(NC(C)(C)C)c(C(=O)Nc3ccc(F)cc3)cnc21 [Example 54, 4-(tert-Butylamino)-1-ethyl-N-(4-fluorophenyl)-1H-pyrazolo[3,4-b]pyridine-5-carboxamide] |  | 
135 | 63.1 | 7.94 | CCn1ncc2c(N[C@H](C)C(C)C)c(C(=O)Nc3ccc(F)cc3)cnc21 [Example 2, 4-{[(1R)-1,2-Dimethylpropyl]amino}-1-ethyl-N-(4-fluorophenyl)-1H-pyrazolo[3,4-b]pyridine-5-carboxamide] |  | 
437 | 7.94 | 3.98 | CCC(CC)CNC(=O)c1cnc2c(cnn2CC)c1N[C@@H](C)C(C)C [Example 51, 4-{[(1S)-1,2-Dimethylpropyl]amino}-1-ethyl-N-(2-ethylbutyl)-1H-pyrazolo[3,4-b]pyridine-5-carboxamide] |  | 
66 | 15.8 | 1 | CCn1ncc2c(N[C@H](C)C(C)C)c(C(=O)NCc3ccccc3)cnc21 [Example 1, N-Benzyl-4-{[(1R)-1,2-dimethylpropyl]amino}-1-ethyl-1H-pyrazolo[3,4-b]pyridine-5-carboxamide] |  | 
501 | 20 | 10 | CCn1ncc2c(N[C@@H](C)C(C)C)c(C(=O)NCc3ccccc3)cnc21 [Example 38, N-Benzyl-4-{[(1S)-1,2-dimethylpropyl]amino}-1-ethyl-1H-pyrazolo[3,4-b]pyridine-5-carboxamide] |  | 
≧468 | 63.1 | > 30.2 | CCn1ncc2c(N[C@@H](C)C(C)C)c(C(=O)Nc3ccc(F)cc3)cnc21 [Example 39, 4-{[(1S)-1,2-Dimethylpropyl]amino}-1-ethyl-N-(4-fluorophenyl)-1H-pyrazolo[3,4-b]pyridine-5-carboxamide] |  | 
21 | 200 | 5.01 | CCC(C)Nc1c(C(=O)Nc2ccccc2)cnc2c1cnn2C(C)C (stereo not drawn) [Comparative Example 61, reference compound] |  | 
 | 15.8 to 63.1 | 0.631 to 3.16 | CC[C@H](C)Nc1c(C(=O)NCc2ccccc2)cnc2c1cnn2CC [compound 59, reference compound] |  | 
 | 15.8 to 63.1 | 0.631 to 3.16 | CC[C@@H](C)Nc1c(C(=O)NCc2ccccc2)cnc2c1cnn2CC [compound 58, reference compound] |  | 
